Where “and” joins values, the source holds several entries; their conditions need not be identical. Equal values may be shown once.

For one test, the target named is T1, p38 alpha (Homo sapiens, UniProt Q16539).
T1 construct: isolate, e.g., pull-down, endogenous targets from cells; endogenous in cells; host or cells: HEK293
The experiment in a line: Endogenous target pull-down from HEK293 cells (western blot, mass spec). It counts as cell-based. Conditions: 10 uM conjugate, western blot and mass spec. Here is the method:
HEK293 cells were plated in a 6 well plate (2.5×10^5 cells). 48 hours post plating, a final concentration of 10 uM of BIRB-chloroalkane (PBI-4834) was added to 2 wells while control cells were not treated with the drug conjugate. Following equilibration binding for 2 h, the media was removed, and the cells were quickly washed with PBS and lysed in detergent-based lysis buffer for 10 min. Cell lysates were then transferred to an EPPENDORF tube containing 12.5 ul of settled paramagnetic HALOTAG protein beads and incubated with shaking for 15 min. Following binding, the unbound fraction was removed, the HALOTAG protein paramagnetic beads washed 3×, and the captured targets specifically released from the beads by competition with 150 μM unconjugated BIRB796 for 60 min. The released targets were subjected to mass spec analysis as well as western blot analysis using an anti-p38 alpha antibody (Abcam).

The target of test [1] is T2, NANOLUC-p38 alpha fusion protein (Homo sapiens, UniProt Q16539).
T2 construct: NANOLUC luciferase (reporter fusion partner); expressed in transfected cells; host or cells: HEK293
T2 sequence (Q16539 whole entry, the tested form may be a part): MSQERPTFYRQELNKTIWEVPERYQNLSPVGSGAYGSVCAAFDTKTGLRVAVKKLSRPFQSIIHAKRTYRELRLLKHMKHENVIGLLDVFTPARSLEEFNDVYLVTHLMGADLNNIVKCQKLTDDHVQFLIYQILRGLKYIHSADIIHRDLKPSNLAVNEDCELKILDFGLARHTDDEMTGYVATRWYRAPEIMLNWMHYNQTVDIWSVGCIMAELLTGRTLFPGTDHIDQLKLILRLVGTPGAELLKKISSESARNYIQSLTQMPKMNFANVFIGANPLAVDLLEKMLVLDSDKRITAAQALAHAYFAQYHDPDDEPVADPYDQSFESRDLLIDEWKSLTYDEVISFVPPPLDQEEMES
As to the kind of experiment: Pull-down and release of NANOLUC-p38 alpha fusion from HEK293 cell lysates. It counts as binding. Here is the method: In this example, BIRB-chloroalkane conjugate (PBI-4834) and BIRB chloroalkane conjugate containing a cleavable linker (PBI-5131) were utilized to pull-down a NANOLUC-p38 alpha fusion protein from HEK293 cell lysates. Lysate of cells expressing NANOLUC-p38 fusion were incubated with 1 μM PBI-4834 or PBI-5131 (final concentration) while control lysates were not treated with the conjugated drugs. Following equilibration binding for 2 h, the lysates were transferred to wells of a 96-well plate containing 0.5 μl settled paramagnetic HALOTAG protein beads and incubated with shaking for 45 min. Following binding the unbound fraction was removed, the HALOTAG protein paramagnetic beads were washed 3×, and the captured NANLUC-p38 alpha fusion specifically released from the beads by one of two methods: • 1. 150 μM unconjugated BIRB796 was used to compete for binding with the conjugated BIRB796 on the NANOLUC-p38 alpha fusion for 60 min. • 2. The NANOLUC-p38 alpha fusion was rapidly released through 10 min chemical cleavage of the chloroalkane linker with 10 mM of sodium hydrosulfite (PBI-5131 is a chloroalkane cleavable linker). The released NANOLUC-p38 alpha (+PBI4834/+PBI5131) and control (-drug) were detected with NANOGLO luciferase detection reagent.

The target of test [2] is T3, NANOLUC-p38 fusion protein (Homo sapiens, UniProt Q16539).
T3 construct: NANOLUC luciferase (reporter fusion partner); expressed in transfected cells
T3 sequence (Q16539 whole entry, the tested form may be a part): as above
The experiment in a line: Pull-down of NANOLUC-p38 fusion from cell lysates with HALOTAG protein dimer on HALOLINK plates. Type of test: binding. As to conditions: p38-Nluc expressing cells treated with drug, listed as BIRB-chloroalkane. As to the method:
Different amounts of a HALOTAG protein dimer (dimer of SEQ ID NO: 1) were added to cell lysates expressing a NANOLUC-p38 fusion protein (e.g., reporter/cellular-target fusion) which have or have not been treated with BIRB-chloroalkane (e.g., bioactive-agent/capture-ligand conjugate) as shown in Table 1. After 15 minute incubation, the samples were placed into wells of white, 96-well polystyrene plates activated with HALOTAG ligand (HALOLINK plates; Promega Corp.) and further incubated for 45 minutes. The wells were then washed PBS+0.05% Tween-20 (PBST). Then, 50 ul PBS followed by 50 ul of NANOGLO luciferase detection reagent was added to the wells, and luminescence measured.
Table 2 indicates differences in luminescence in samples with and without HALOTAG dimer (e.g., dimer of SEQ ID NO: 1) that indicate specific pull-down of the NANOLUC-p38 fusion protein.

For test [3], the target named is T2, NANOLUC-p38 alpha fusion protein. As to the kind of experiment: Pull-down of NANOLUC-p38 alpha fusion from living HEK293 cells onto HALOTAG protein beads. It counts as cell-based. As to the method:
In this example, a BIRB-chloroalkane conjugate (PBI-4834, see below) was utilized to pull down a NANOLUC-p38 alpha fusion protein from living cells.
HEK293 cells in wells of a 96-well plate were transfected using PEI with plasmid DNA encoding NANOLUC-p38 fusion. Twenty-four hours post-transfection, cells were incubated with a final concentration of 10 μM PBI-4834 while control cells were not treated with the conjugated drug. Following equilibration binding of 2 hours, the media was removed, cells were quickly washed with PBS and lysed in a detergent-based lysis buffer for 10 minutes. The cell lysates were then transferred to wells of a 96-well plate which contained 0.5 μl settled paramagnetic HALOTAG protein beads (Promega Corp.) and incubated with shaking for 15-45 minutes. Following binding, the unbound fraction was removed and the HALOTAG protein paramagnetic beads were washed. 150 uM unconjugated BIRB796 was then added and the captured NANOLUC-p38 alpha fusion was specifically released from the beads by competition with the unconjugated BIRB796 for 60 minutes. The released NANOLUC-p38 alpha fusion protein (+PBI-4834) and control (−PBI4834) was detected using NANOGLO luciferase reagent (Promega Corp.).

Another test addresses T4, NANOLUC-DHFR fusion (Homo sapiens, UniProt P00374).
T4 construct: NANOLUC luciferase (reporter fusion partner); expressed in transfected cells; host or cells: HEK293
T4 sequence (P00374 1-187): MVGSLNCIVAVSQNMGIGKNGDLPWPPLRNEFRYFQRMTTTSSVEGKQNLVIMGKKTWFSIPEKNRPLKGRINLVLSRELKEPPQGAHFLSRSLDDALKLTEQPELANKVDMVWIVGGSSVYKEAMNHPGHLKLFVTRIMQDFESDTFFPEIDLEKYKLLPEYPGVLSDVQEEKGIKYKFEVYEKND
The experiment in a line: Binding affinity to DHFR in live cells using BRET. Type of test: cell-based. Conditions: live HEK293 cells, in the presence of 1 μM PBI-4890. Here is the method:
Binding affinity to DHFR in live cells was tested using BRET. HEK293 cells in wells of a 96-well plate were transfected using PEI with plasmid DNA encoding a NANOLUC-DHFR fusion. The DNA was diluted 1:50 with a promoterless carrier DNA plasmid (PSI) to a final concentration of 80 ng total DNA per well. Twenty-four hours post-transfection, cells were serum starved for additional 24 hours and then treated with serially diluted PBI-4848 or PBI-5015 in the presence of 1 μM PBI-4890 (TOM-methotrexate derivative). After two hours of equilibration binding, furimazine (a coelenterazine derivative; Promega Corp.) was added to a final concentration of 20 μM, and BRET measured on a Varioskan luminometer.
(BRET reads energy transfer from a luciferase to a nearby fluorophore.)

In test [4] the target is T5, NANOLUC:DHFR (Nluc:DHFR) fusion (Homo sapiens, UniProt P00374).
T5 construct: NANOLUC luciferase (reporter fusion partner); expressed in transfected cells; host or cells: HEK293
T5 sequence (P00374 1-187): T4 sequence (P00374 1-187)
As to the kind of experiment: Pull-down of NANOLUC:DHFR from live HEK293 cells onto HALOTAG protein beads. It counts as cell-based. Conditions: 10 μM conjugate, release with 150 μM methotrexate. As to the method:
The DNA was diluted 1:50 with a promoterless carrier DNA plasmid (PSI) to a final concentration of 80 ng total DNA per well. Twenty-four hours post-transfection, cells were serum starved for additional 24 h and then incubated with 10 μM PBI-4848 or PBI-5015 while control cells were not treated with the conjugated drug. Following equilibration binding of 2 h, the media was removed, and the cells quickly washed with PBS and lysed in detergent-based lysis buffer for 10 min. Cell lysates were then transferred to wells of a 96-well plate containing 0.5 μl settled paramagnetic HALOTAG protein beads and incubated with shaking for 45 min. Following binding, the unbound fraction was removed, the HALOTAG protein paramagnetic beads washed, 150 μM unconjugated methotrexate added, and the captured NANOLUC:DHFR specifically released from the beads by competition with the unconjugated methotrexate for 60 min. The released NANOLUC:DHFR (+PBI5015 or +PBI 4848) and control samples were detected by NANOGLO luciferase detection reagent.

For the next test, the target named is T6, DHFR (Homo sapiens, UniProt P00374).
T6 construct: isolate, e.g., pull-down, endogenous targets from cells; endogenous in cells; host or cells: HEK293
T6 sequence (P00374 1-187): T4 sequence (P00374 1-187)
The experiment in a line: Endogenous target pull-down from HEK293 cells (western blot, mass spec). It counts as cell-based. Conditions: 10 uM conjugate, western blot and mass spec. As to the method: HEK293 cells were plated into wells of a 6-well plate (2.5×10^5 cells/well). 48 hours post plating, a final concentration of 10 uM of Methotrexate chloroalkane (PBI-5015) was added to 2 wells while control cells were not treated with the drug conjugate. Following equilibration binding for 2 h, the media was removed, and the cells quickly washed with PBS and lysed in detergent-based lysis buffer for 10 min. Cell lysates were then transferred to an Eppendorf® tube containing 12.5 ul of settled paramagnetic HALOTAG protein beads and incubated with shaking for 15 min. Following binding, the unbound fraction was removed, the HALOTAG paramagnetic beads washed 3×, and the captured targets specifically released from the beads by competition with 150 μM unconjugated methotrexate for 60 mins. The released targets were subjected to mass spec analysis as well as western blot analysis using an anti-DHFR antibody (Sigma). […] Furthermore, although the expression level of DHFR in the cells is very low (not detected in lysate by western blot analysis), it was still efficiently captured as indicated by the western blot analysis (FIG. 8A) and mass spec analysis (FIG. 8B).
A general note: Immunoblotting shows a protein as a band on a membrane.

T1 sequence (Q16539 whole entry): as the sequence (Q16539 whole entry, the tested form may be a part) above

Regarding `CC(C)(C)c1cc(NC(=O)Nc2ccccc2)n(-c2cccc(CNC(=O)CNC(=O)OCCOCCOCCOC(=O)NCCOCCOCCCCCCCl)c2)n1` [PBI-4834], the “pull-down of endogenous p38 alpha” value on p38 alpha is “specifically isolated”. For the same molecule, in test [1] (1 μM conjugate, HEK293 cell lysate), the “pull-down efficiency of NANOLUC-p38 alpha” value was “significantly higher”. The luminescence was 236900 and 397958 and 431167 in test [2] (2 ug/well HALOTAG dimer); 401205 and 538956 and 596504 in test [2] (6 ug/well HALOTAG dimer); 395510 and 526903 and 610628 in test [2] (8 ug/well HALOTAG dimer); 278085 and 275690 and 443682 in test [2] (No HALOTAG dimer). The “expressed fusion specifically captured to the beads” value in test [3] (10 μM conjugate, HEK293 cells, release with 150 uM BIRB796) came out at 1%. For the same molecule, the “signal over background of capture on HALOTAG protein beads” value in test [3] (within 15 minutes of capture) is “high signal over background”.
With `CN(Cc1cnc2nc(N)nc(N)c2n1)c1ccc(C(=O)NC(CCC(=O)NCCOCCOCCCCCCCl)C(=O)O)cc1` (stereo not shown) [PBI-4848], on NANOLUC-DHFR fusion, the “affinity to DHFR (dose-response BRET curves)” value is reported as “higher affinity”.
Take `CN(Cc1cnc2nc(N)nc(N)c2n1)c1ccc(C(=O)NC(CCC(=O)NCCCCCNC(=O)OCCOCCOCCOC(=O)NCCOCCOCCCCCCCl)C(=O)O)cc1` (stereo not shown) [PBI-5015]: in test [4], the “pull-down of Nluc:DHFR fusion” value is “efficiently pulled down”. Further, the “pull-down of endogenous DHFR” value at DHFR is on record as “specifically isolated”. Besides, the “affinity to DHFR (dose-response BRET curves)” value on NANOLUC-DHFR fusion is reported as “lower affinity”.
As for `CC(C)(C)c1cc(NC(=O)Nc2ccccc2)n(-c2cccc(CNC(=O)CCCCCOc3ccc(/N=N/c4ccc(C(=O)NCCOCCOCCCCCCCl)cc4)c(O)c3)c2)n1` [PBI-5131], the “specific capture after rapid release using chemical cleavage” value in test [1] (10 min cleavage with 10 mM sodium hydrosulfite) was “significant increase in specific capture”.

The values are drawn from US10168323B2, “Compositions and methods for capture of cellular targets of bioactive agents” (Promega Corporation, priority 2013, dated 2019).
